Laboratory results from publication PMC5048659 (Arthritis Research & Therapy, 2016).

Experiments:
OAT1 = molecular target: T1, OAT1 (Homo sapiens, UniProt Q4U2R8); test: OAT1 6-carboxyfluorescein transport in transfected HEK-293T cells; type: cell-based; settings: 5 μM 6-carboxyfluorescein, 2 min; mean ± SEM; read-out: Potency (IC50) against OAT1
T1 construct: host or cells: HEK-293T, transient transfection
T1 sequence (Q4U2R8 1-563): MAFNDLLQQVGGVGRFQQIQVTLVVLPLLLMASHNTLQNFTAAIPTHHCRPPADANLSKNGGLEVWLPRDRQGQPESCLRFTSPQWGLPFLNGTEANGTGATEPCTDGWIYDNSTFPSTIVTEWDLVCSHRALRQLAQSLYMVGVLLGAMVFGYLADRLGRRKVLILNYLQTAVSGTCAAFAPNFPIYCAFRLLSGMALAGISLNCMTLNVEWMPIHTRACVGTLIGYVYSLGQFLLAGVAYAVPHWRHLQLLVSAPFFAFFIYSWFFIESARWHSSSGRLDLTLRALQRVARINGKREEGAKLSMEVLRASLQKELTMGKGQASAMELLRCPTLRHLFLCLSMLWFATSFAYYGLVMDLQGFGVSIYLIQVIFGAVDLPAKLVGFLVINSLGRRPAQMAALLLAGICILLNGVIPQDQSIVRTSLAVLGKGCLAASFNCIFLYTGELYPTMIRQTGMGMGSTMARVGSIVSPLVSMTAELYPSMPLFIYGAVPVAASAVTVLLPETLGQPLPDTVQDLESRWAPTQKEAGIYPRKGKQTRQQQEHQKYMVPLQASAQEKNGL
Experimental: The cells were washed three times in a buffer containing 125 mM NaCl and 25 mM HEPES, pH 7.3, and then lysed in 1 M sodium hydroxide prior to fluorescence measurement.

healthy volunteers = test: Clinical effect on serum uric acid (phase 1 RDEA594-109); type: in vivo, human
Experimental: In each treatment period, plasma samples were collected within 30 minutes before dosing (pre-dose) and at 0.5, 1, 1.5, 2, 3, 4, 5, 6, 8, 10, 12, 16, 24, 30, 36, and 48 hours post-dose. Urine (total catch) was collected pretreatment at hours –24 to –18, –18 to –12, and –12 to 0, and post-dose at hours 0 to 6, 6 to 12, 12 to 24, 24 to 30, 30 to 36, and 36 to 48.
Serum was collected within 30 minutes prior to drug administration, and at 6, 12, 16, 24, 30, 36, and 48 hours after dosing. Serum urate levels and PD parameters were assayed and calculated by Covance Clinical Research Unit as described above.

PPARγ = molecular target: T2, PPARγ (Homo sapiens, UniProt P37231); test: Human PPARγ luciferase reporter assay; type: cell-based; settings: reporter cells, 24 hours, up to 100 μM
T2 sequence (P37231 238-505 limits assumed): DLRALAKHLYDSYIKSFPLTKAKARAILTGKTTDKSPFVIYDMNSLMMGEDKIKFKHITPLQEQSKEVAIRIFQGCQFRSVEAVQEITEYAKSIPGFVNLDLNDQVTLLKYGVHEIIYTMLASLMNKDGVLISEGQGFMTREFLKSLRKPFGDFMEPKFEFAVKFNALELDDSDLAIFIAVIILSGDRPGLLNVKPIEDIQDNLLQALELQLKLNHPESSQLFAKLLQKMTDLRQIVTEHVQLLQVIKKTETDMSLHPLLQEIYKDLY
Experimental: This assay was performed using nonhuman mammalian cells engineered to provide a PPARγ-responsive luciferase reporter gene and constitutive, high levels of PPARγ (Indigo Biosciences catalog number IB00101). Cells were incubated with compounds for 24 hours, and then luciferase activity was measured using a luminometer. Agonist activity was reported as fold activation over a vehicle control. A positive control agonist, rosiglitazone, was included in each batch run to verify cell integrity.

[1] = cited from earlier work
OAT1 and OAT3 = settings: in vivo; cited from earlier work
HepG2 cells = test: Mitochondrial toxicity assay (JC-1 mitochondrial membrane potential); type: cell-based, human; settings: HepG2, highest concentration tested 33 μM
Experimental: HepG2 cells were counted via hemocytometer and diluted into equal volumes of serum-free Opti-MEM (Life Technologies) and JC-1 Staining Solution (Sigma catalog number CS0390) at 300,000 cells/mL in the presence of 2.5 μg/mL JC-1. Cells were incubated at 37 °C and 5 % CO2 for 20 minutes, rinsed once with Hank's Balanced Salt Solution, and resuspended to the same concentration in serum-free Opti-MEM. Cells were then seeded into 96-well black-sided clear-bottom tissue culture plates at 30,000 cells/100 μL/well. Three replicates per experimental condition group were used. Compound was added with the final dimethyl sulfoxide (DMSO) concentration at 0.5 %. After 2 hours at 37 °C and 5 % CO2, medium was aspirated and plates were read on a Gemini EM spectrofluorometer (Molecular Devices). Fluorescence of JC-1 monomers was monitored by excitation at 490 nm and emission at 530 nm (green) and of aggregates by excitation at 525 nm and emission at 590 nm (red). The ratio of J-aggregates to monomers was calculated, with a lower ratio indicating increased cell toxicity. The percent change in mitochondrial membrane potential (Ψm) was calculated as follows: […]

OAT3 = tested on: OAT3; parameters: method as in earlier work; settings: oocytes, 2 µM 3H-estrone sulfate, 60 min; shown in Figure S1; ref 41 (Shen et al.); read-out: IC50 against OAT3; cited from earlier work

For `O=C(O)CSc1nnc(Br)n1-c1ccc(C2CC2)c2ccccc12` [Lesinurad, 2-((5-bromo-4-(4-cyclopropylnaphthalen-1-yl)-4H-1,2,4-triazol-3-yl)thio) acetic acid], which IC50 (OAT1) is on record?
The IC50 was 3.9 ± 0.94 µM.

What about the “Reduction of sUA” value (healthy volunteers; single 200-mg dose, after 6 hours, p < 0.001) of the same compound?
Its value is 33%.

What about the “Maximum reduction of sUA” value (healthy volunteers; single 600-mg dose, after 6 hours) of the same compound?
Its value is 42%.

And the “Reduction of sUA” value (healthy volunteers; single 600-mg dose, after 24 hours)?
Its value is 31%.

What about the PPARγ activation (PPARγ) of the same compound?
Its PPARγ activation is “no PPARγ agonism”.

And the Plasma protein binding [1]?
Its Plasma protein binding is 98.4%.

What about the “Effect on renal clearance and PD of the OAT substrate furosemide” value (OAT1 and OAT3) of the same compound?
The value was “no effect”.

What about the Mitochondrial toxicity (HepG2 cells) of the same compound?
The Mitochondrial toxicity was “no mitochondrial toxicity”.

And the IC50 (OAT3)?
The IC50 was 3.54 µM.
